Common to all, as to format: cell-based
One test has as its system Klebsiella species. Put plainly: Attenuation of infection by Klebsiella.
The subject of another test is Acinetobacter species. Put plainly: Attenuation of infection by Acinetobacter.
Another test concerns Salmonella species. In words: Attenuation of infection by Salmonella.
The subject of test [1] is intracellular and extracellular bacterial strains in RAW 264.7 macrophages. Put plainly: Uptake and intracellular survival of bacterial strains in RAW 264.7 macrophages (FIG. 21). The text has this: This confirms the results of the screen and expands potential uses. Quinacrine was previously known as an antiparasitic, an anti-inflammatory agent, intrapleural sclerosing agent, a pneumothorax prophylaxis, Creutzfeldt-Jakob disease (CJI)) therapy, and as an anticancer agent (FIG. 21).

The next test has as its system Pseudomonas species. In words: Attenuation of infection by Pseudomonas.
The test system of test [2] is Escherichia coli uptake by RAW 264.7 macrophages. In words: CFU-less assay (CLA) screen of 2,400 approved drugs for modulators of bacterial uptake.
The subject of another test is E. coli. Put plainly: Axenic growth of bacteria (CFU-less assay / optical density). Particulars: varying amounts of compound, FIG. 19. The text has this: In some embodiments, methods for measuring bacterial growth rate in axenic culture are described. The methods comprise: • (a) expressing in the bacteria a fluorescent protein; • (b) growing the bacteria in axenic culture; and • (c) measuring fluorescence in the culture at regular intervals.
The CFU-less assay can reliably detect compound cytotoxicity in axenic medium. The compound(s) of interest were combined with either the host cell or the pathogen in an axenic medium to analyze toxicity of the compound(s) on the host cell or pathogen. The graphs below show an example of how the compounds from the screen affect axenic growth of E. coli. The effects of the compounds on axenic growth of E. coli were minimal.

In a further test the test system is bacterial uptake. In words: CFU plating to confirm uptake enhancement. How it is done: CFU plating was performed to confirm the enhancement.

From patent publication US12630856B2, “Identification of host-targeting modulators of bacterial uptake and assay for quantifying intracellular bacteria” (priority 2020, dated 2026) come the findings set out here.

Where a name gives a salt, the structure may show the parent alone.

As for `CCN(CC)CCCC(C)Nc1c2ccc(Cl)cc2nc2ccc(OC)cc12` (stereo not shown) [Quinacrine hydrochloride], the “infection by Klebsiella species” value in the test with Klebsiella species was “attenuated infection”. Further, the “infection by Acinetobacter species” value with Acinetobacter species is given as “attenuated infection”. The “infection by Salmonella species” value in the test with Salmonella species was “attenuated infection”. Also, the “intracellular survival of both intracellular and extracellular bacterial strains” value in test [1] is given as “inhibitory effect”. Besides, the “uptake of both intracellular and extracellular bacterial strains (dT)” value in test [1] (FIG. 21) is “inhibitory effect (increased dT)”. Besides, the “infection by Pseudomonas species” value with Pseudomonas species is “attenuated infection”. The “intracellular load of bacteria” value in test [2] (screen of 2,400 compounds) is “decreases the intracellular load of bacteria”.
As to Polymyxin B sulfate, the “gram-negative bacterial growth in axenic culture” value in the test on E. coli was “inhibition of gram-negative bacterial growth”.
Turning to `CO[C@H]1C[C@H](O[C@H]2[C@H](C)O[C@@H](O[C@@H]3/C(C)=C/C[C@@H]4C[C@@H](C[C@]5(C=C[C@H](C)[C@@H](C6CCCCC6)O5)O4)OC(=O)[C@@H]4C=C(C)[C@@H](O)[C@H]5OC/C(=C\C=C\[C@@H]3C)[C@]54O)C[C@@H]2OC)O[C@@H](C)[C@@H]1O` [Doramectin], the “confirmation of uptake enhancement by CFU plating” value in the test on bacterial uptake is reported as “enhancement”. For the same compound, the “bacterial uptake in the presence of the compound (FIG. 2)” value in test [2] is “increase in bacterial uptake”.
